# Patent US6558951B1, “Maturation of dendritic cells with immune response modifying compounds” (3M Innovative Properties Company, priority 1999, dated 2003)
# Legend:
# Assay type in all cases: cell-based, human
# [1] = test system: monocyte-derived dendritic cells (MO-DC); test: MO-DC cytokine and chemokine secretion (ELISA or bioassay of culture supernatants); settings: for IFN-α: bioassay; for IFN-α / IL-6 / IL-8 / IL-12 / MCP-1 / MIP-1α / TNF-α: mean ± SEM
# Procedure: Generation of Monocyte-Derived Dendritic Cells (MO-DC). PBMC were isolated with Histopaque HybriMax-1077 density gradient (Sigma) from healthy volunteers after obtaining informed consent. CD14^+ cells were purified by positive selection using CD14^+ microbeads in conjunction with the MiniMACS system (Miltenyi Biotech, Auborn, Calif.) by following the manufacturer's instructions. Purity, as assessed by flow cytometry, was greater than 90%. […] Fresh medium containing GM-CSF and IL-4 was added every three days. MO-DC were routinely used between days 7 and 8 of culture. As a control, depleted lymphocytes were cultured in the same fashion. In Vitro MO-DC Stimulation. […] Cells were subsequently analyzed by flow cytometry for the expression of various cell surface markers, and the cell culture supernatants were analyzed for various cytokines and chemokines by ELISA. Cytokine Analysis. Cytokine levels were measured by ELISA. […] Human IL-6 kits were obtained from Biosource International (Camarillo, Calif.). Human IL-5, IL-8, MIP-1α, MCP-1 and RANTES were purchased from R&D Systems. All ELISA were run according to manufacturer's specifications. […] IFN-α and IFN-β specific antibodies were used to determine which type I IFN was present in the MO-DC supernatants. Results for all ELISAs are presented in pg/ml, whereas IFN results are presented in U/ml.
# [2] = test system: monocyte-derived dendritic cells (MO-DC); test: MO-DC cell surface maturation marker expression by flow cytometry
# Procedure: Generation of Monocyte-Derived Dendritic Cells (MO-DC). […] CD14^+ cells were purified by positive selection using CD14^+ microbeads in conjunction with the MiniMACS system (Miltenyi Biotech, Auborn, Calif.) by following the manufacturer's instructions. […] Fresh medium containing GM-CSF and IL-4 was added every three days. MO-DC were routinely used between days 7 and 8 of culture. As a control, depleted lymphocytes were cultured in the same fashion. In Vitro MO-DC Stimulation. […] Cells were subsequently analyzed by flow cytometry for the expression of various cell surface markers, and the cell culture supernatants were analyzed for various cytokines and chemokines by ELISA. Cell Surface and Intracellular Flow Cytometry. […] Cells (5-10^5) were incubated for 15 minutes incubation at 4° C. with purified IgD (Becton Dickinson) to block non-specific binding, and then the cells were stained for 30 minutes with the antibodies at 4° C. in PBS containing 10% FCS and 0.1% sodium azide. After washing in PBS, the cells were analyzed using a FACScan flow cytometer and Cell Quest software (Becton Dickinson).
# [3] = test system: allogeneic T cells; test: Allogeneic lymphocyte activation (primary MLR) by treated MO-DC: T cell proliferation and cytokines
# Procedure: Allogeneic Lymphocyte Activation. T-cells were isolated using T-Cell Purification Columns according to manufacturer's specifications (R&D Systems, Minneapolis, Minn). […] Dendritic cells were subsequently washed, resuspended in cRPMI and added at various concentrations (1-32×10^3 per well) to purified responder T-cells (1×10^5 per well) in 96-well flat-bottomed microtiter plates (BD Labware) in a total volume of 200 μl. […] Each well received 1 μCi [^3H]TdR and was harvested 18 hours later. Results are presented as mean CPM±SEM of triplicate wells. […] Cytokine Analysis. Cytokine levels were measured by ELISA. […] Human IL-6 kits were obtained from Biosource International (Camarillo, Calif.). Human IL-5, IL-8, MIP-1α, MCP-1 and RANTES were purchased from R&D Systems. All ELISA were run according to manufacturer's specifications. […] IFN-α and IFN-β specific antibodies were used to determine which type I IFN was present in the MO-DC supernatants. Results for all ELISAs are presented in pg/ml, whereas IFN results are presented in U/ml.
# [4] = test system: syngeneic CD3-enriched peripheral blood T cells; test: Autologous T cell activation by treated MO-DC (anamnestic response to tetanus toxoid)
# Procedure: Autologous T Cell Activation. Autologous T cells and R-848-treated MO-DC were prepared as described for allogeneic T cell stimulation. MO-DC were cultured with R-848 [2 μg/ml] and tetanus toxoid [10 μg/ml] for 24 hours. The MO-DC were washed and cultured at graded doses with PBMC-derived CD3^+ T cells for 7 days. Cell proliferation and analysis were determined as described. Supernatants were also collected; from the same cultures prior to pulsing with [^3H]TdR and analyzed for IFN-γ and IL-5.
# Cytokine Analysis. Cytokine levels were measured by ELISA. Human TNF-α, IL-12 (p40/p70), IFNγ, IL-4 and IL-2 kits were purchased from Genzyme (Cambridge, Mass.). Human IL-6 kits were obtained from Biosource International (Camarillo, Calif.). Human IL-5, IL-8, MIP-1α, MCP-1 and RANTES were purchased from R&D Systems. All ELISA were run according to manufacturer's specifications. IFN levels were; measured by bioassay (40). IFN-α and IFN-β specific antibodies were used to determine which type I IFN was present in the MO-DC supernatants. Results for all ELISAs are presented in pg/ml, whereas IFN results are presented in U/ml.
# [5] = 0.1 μg/ml, 24 hours, MO-DC supernatant
# [6] = 0.4 μg/ml, 24 hours, MO-DC supernatant
# [7] = 2.0 μg/ml, 24 hours, MO-DC supernatant
# [8] = 8.0 μg/ml, 24 hours, MO-DC supernatant
# [9] = treatment time 1 hr, 2 μg/ml R-848 or 1 μg/ml LPS
# [10] = treatment time 6 hr, 2 μg/ml R-848 or 1 μg/ml LPS
# [11] = treatment time 24 hr, 2 μg/ml R-848 or 1 μg/ml LPS
# [12] = 0.1 μg/ml, 24 hours, vs vehicle
# [13] = MO-DC treated with 2 and 8 μg/ml, MLR supernatants, 96 hours
# [14] = MO-DC treated with 2 μg/ml and 10 μg/ml tetanus toxoid 24 hours, 7 days co-culture
compound,measurement,setting,value
"CCOCc1nc2c(N)nc3ccccc3c2n1CC(C)(C)O [R-848, 4-amino-2-ethoxymethyl-α,α-dimethyl-1H-imidazo [4,5-c]quinoline-1-ethanol]",IFN-α,[1]; [5],8 ± 3 U/ml
same,IL-6,[1]; [5],20 ± 12 pg/mL
same,IL-8,[1]; [5],425 ± 132 pg/mL
same,IL-12,[1]; [5],70 ± 21 pg/mL
same,MCP-1,[1]; [5],3603 ± 2158 pg/mL
same,MIP-1α,[1]; [5],57 ± 57 pg/mL
same,TNF-α,[1]; [5],6 ± 3 pg/mL
same,IFN-α,[1]; [6],8 ± 3 U/ml
same,IL-6,[1]; [6],399 ± 208 pg/mL
same,IL-8,[1]; [6],5125 ± 2430 pg/mL
same,IL-12,[1]; [6],106 ± 27 pg/mL
same,MCP-1,[1]; [6],4864 ± 2213 pg/mL
same,MIP-1α,[1]; [6],511 ± 314 pg/mL
same,TNF-α,[1]; [6],14 ± 4 pg/mL
same,stimulation time for maximal IL-12 secretion,[1]; 2 μg/ml R-848 or 1 μg/ml LPS,between six and twenty four hours
same,stimulation time for maximal TNF-α secretion,[1]; 2 μg/ml R-848 or 1 μg/ml LPS,between one and six hours
same,IFN-α,[1]; [7],27 ± 7 U/ml
same,IL-6,[1]; [7],6729 ± 1888 pg/mL
same,IL-8,[1]; [7],50092 ± 10385 pg/mL
same,IL-12,[1]; [7],15984 ± 3860 pg/mL
same,MCP-1,[1]; [7],12941 ± 5802 pg/mL
same,MIP-1α,[1]; [7],15412 ± 5244 pg/mL
same,TNF-α,[1]; [7],1540 ± 371 pg/mL
same,IFN-α,[1]; [8],41 ± 12 U/ml
same,IL-6,[1]; [8],9690 ± 1269 pg/mL
same,IL-8,[1]; [8],66988 ± 11863 pg/mL
same,IL-12,[1]; [8],19640 ± 3966 pg/mL
same,MCP-1,[1]; [8],16249 ± 7661 pg/mL
same,MIP-1α,[1]; [8],25956 ± 5782 pg/mL
same,TNF-α,[1]; [8],2208 ± 240 pg/mL
same,inhibition of induced IFN bioactivity by neutralizing IFN-α,"[1]; MO-DC supernatants, IFN bioassay",greater than 95%
same,IL-12,[1]; [9],65 ± 18 pg/mL
same,TNF-α,[1]; [9],32 ± 10 pg/mL
same,IL-12,[1]; [10],4446 ± 2438 pg/mL
same,TNF-α,[1]; [10],1053 ± 707 pg/mL
same,IL-12,[1]; [11],13153 ± 5484 pg/mL
same,TNF-α,[1]; [11],335 ± 201 pg/mL
same,CD83 cell surface expression,[2]; [12],no increase
same,CD86 cell surface expression,[2]; [12],no increase
same,increase in CD40 expression over vehicle treated MO-DC,"[2]; 2 μg/ml, 24 hours",2 fold
same,increase in CD80 expression over vehicle treated MO-DC,"[2]; 2 μg/ml, 24 hours",2 fold
same,maximal average increase in CD80 expression (MFI),"[2]; 2 μg/ml, 24 hours",3- to 4 fold
same,maximal average increase in CD86 expression (MFI),"[2]; 2 μg/ml, 24 hours",3- to 4 fold
same,decrease in CD1a expression,"[2]; 2 μg/ml, 24 hours, vs vehicle",not statistically significant
same,increase in cell surface HLA-DR expression,"[2]; 2 μg/ml, 24 hours, vs vehicle",not quantitatively significant
same,culture time giving maximal DC maturation marker expression,"[2]; 2 μg/ml, 24, 48, 72 and 96 hour stimulation examined",24 h
same,CD86 expression,"[2]; 0.4, 2 and 8 μg/ml, 24 hours, vs vehicle",Enhanced
same,cell surface expression of CD83,"[2]; 2 and 8 μg/ml, 24 hours, vs vehicle",Enhanced
same,CD83 expression,"[2]; pulsed 6 hours, stained immediately, 2 μg/ml R-848 or 1 μg/ml LPS",significant increase
same,"CD40, CD80, CD86 and HLA-DR expression","[2]; pulsed 6 hours, stained immediately, 2 μg/ml R-848 or 1 μg/ml LPS, vs medium control",not statistically significant
same,CD83 and CD40 expression,"[2]; pulsed 6 hours, washed, re-cultured 18 hours, 2 μg/ml R-848 or 1 μg/ml LPS",significant increase
same,"expression of CD83, CD80, CD86, CD40 or HLA-DR","[2]; pulsed one hour with 2 μg/ml R-848 or 1 μg/ml LPS, then stained",did not show enhanced expression
same,"expression of CD83, CD80, CD86, CD40 or HLA-DR","[2]; pulsed one hour, washed, re-cultured 23 hours, 2 μg/ml R-848 or 1 μg/ml LPS",did not show enhanced expression
same,allogeneic T cell proliferation vs untreated MO-DC,[3]; MO-DC treated for 6 hours,significantly enhanced
same,allogeneic T cell proliferation vs untreated MO-DC,[3]; MO-DC treated for less than 6 hours,not significantly increased
same,enhancement of IFN-γ production vs untreated MO-DC cultures,[3]; [13],2- to 3 fold
same,enhancement of IL-2 production vs untreated MO-DC cultures,[3]; [13],2- to 3 fold
same,enhancement of IL-5 production vs untreated MO-DC cultures,[3]; [13],2- to 3 fold
same,"IL-2, IL-5 or IFN-γ production by T cells","[3]; T cells cultured in the presence of compound, without added MO-DC",do not produce
same,IFN-γ production vs MO-DC cultured only with tetanus toxoid antigen,[4]; [14],4- to 11 fold
same,increase of syngeneic T cell proliferation vs MO-DC not treated with R-848,[4]; [14],2to 3 fold
same,IL-5 in culture supernatants,"[4]; MO-DC treated with 2 μg/ml and 10 μg/ml tetanus toxoid, autologous MO-DC/T cell system",not detected
